For 13 compounds, EC50 results are on record in BindingDB's records for doi:10.7270/Q2ST7N9K (Burnham Center For Chemical Genomics, 2010).

The target in the assay is Intestinal-type alkaline phosphatase (Homo sapiens, UniProt P09923). As to the kind of experiment: human intestinal alkaline phosphatase activators, dose response, biochemical, luminescence, uHTS hits (AID 463120).
Intestinal-type alkaline phosphatase, sequence (P09923 whole entry): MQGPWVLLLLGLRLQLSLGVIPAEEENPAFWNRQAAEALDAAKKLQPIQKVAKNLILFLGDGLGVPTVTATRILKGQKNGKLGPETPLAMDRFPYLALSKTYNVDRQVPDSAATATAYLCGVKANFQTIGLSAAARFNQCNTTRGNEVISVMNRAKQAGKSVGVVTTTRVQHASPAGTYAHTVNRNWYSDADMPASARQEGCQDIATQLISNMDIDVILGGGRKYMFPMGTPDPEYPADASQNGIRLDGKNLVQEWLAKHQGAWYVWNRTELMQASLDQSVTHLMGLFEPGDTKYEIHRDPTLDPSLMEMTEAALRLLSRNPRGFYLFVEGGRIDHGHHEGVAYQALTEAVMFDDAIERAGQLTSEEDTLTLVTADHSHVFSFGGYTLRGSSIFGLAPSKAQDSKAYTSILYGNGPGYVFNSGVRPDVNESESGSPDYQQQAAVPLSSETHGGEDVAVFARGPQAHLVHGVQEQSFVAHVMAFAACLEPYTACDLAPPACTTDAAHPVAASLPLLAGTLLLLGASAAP
`CCc1ccc(CN=Nc2ncnc3nc[nH]c23)cc1` [MLS000419199] displayed an EC50 of 6.62 µM. This lies in the single-digit micromolar range.

`Cc1cc(Br)ccc1SCC(=O)OCC(=O)C(C#N)c1nc2ccccc2[nH]1` (stereo not drawn) [2-[(4-bromo-2-methylphenyl)thio]acetic acid [3-cyano-3-(1,3-dihydrobenzimidazol-2-ylidene)-2-oxopropyl] ester] gave an EC50 of 13.4 µM. Compared with the last compound, the EC50 is about 2-fold higher.

Consider `Cn1c(C(C#N)C(=O)c2ccc(Br)s2)nc2ccccc21` (stereo not drawn) [MLS001167394], for which the concentration for a half-maximal effect (EC50) stood at 77 µM.

`O=Nc1[nH]c(=O)c(CC(=O)c2ccccc2)nc1NO` [SMR000539633]: the EC50 stood at 8.21 µM.

Turning to `COc1cccc(CN=Nc2nn3cnnc3c3ccccc23)c1O`, the concentration for a half-maximal effect (EC50) is over 100 µM.

`O=c1c2ccccc2nc(N=NCc2c(O)ccc3ccccc23)n1O` [SMR000145705]: the EC50 worked out at 13.6 µM.

`COc1cccc(C=NNC(=O)c2[nH][nH]c(=O)c2C)c1O` [N'-[(E)-(5-methoxy-6-oxidanylidene-cyclohexa-2,4-dien-1-ylidene)methyl]-4-methyl-5-oxidanylidene-1,4-dihydropyrazole-3-carbohydrazide] gave a 50% effective concentration (EC50) of 6.53 µM.

Turning to `C=c1[nH]n(-c2nc3ccccc3[nH]2)c(=O)c1=CN(C)C` [(4E)-2-(1H-benzimidazol-2-yl)-4-(dimethylaminomethylidene)-5-methyl-pyrazol-3-one], the EC50 was 12.3 µM.

`COc1ccc(Cc2cc(O)n(-c3ccc(C)cc3)c2O)cc1` [3-(4-Methoxy-benzyl)-1-p-tolyl-pyrrolidine-2,5-dione]: the EC50 was over 100 µM.

In turn, `Cc1c(C(=O)NN=Cc2ccc(O)cc2O)[nH][nH]c1=O` showed a concentration for a half-maximal effect (EC50) of 8.3 µM.

In turn, `O=C(Nn1c(O)csc1=S)C(=O)Nn1c(O)csc1=S` [SMR000349781] gave an EC50 of 9.21 µM.

Compound `Cc1ccc(O)c(N=CCC(=O)c2ccc(F)cc2)c1` [MLS001183581] had a 50% effective concentration (EC50) of over 100 µM.

Compound `CCOC(=O)c1c(C)[nH]c(C(=O)N/N=C/C2C=C([N+](=O)[O-])C=CC2=O)c1C` (stereo not drawn) [ethyl 2,4-dimethyl-5-[[[(E)-(3-nitro-6-oxocyclohexa-2,4-dien-1-ylidene)methyl]amino]carbamoyl]-1H-pyrrole-3-carboxylate] gave an EC50 of 12.1 µM.
